# Assays:
# Axin2 [1] = assay: Axin2 expression in cell lysate of colorectal cancer cells treated with HCA and BCA; type: cell-based; details: at an nM level
# From the text: (§1) According to the previous research results, it has been known that 2′-Hydroxycinnamaldehyde (HCA), which is a main component of cinnamon, and a derivative thereof, i.e., 2′-benzoyloxycinnamaldehyde (BCA) inhibit cancer metastasis through Snail expression inhibition by inhibiting LRP-1 receptors (Hwang H et al., J Neuroimmunol 2011, 230, 52-64; Ismail I A, et al., Breast Cancer Res Treat, 137, 697-708, 2013). Thus, to confirm whether HCA and BCA are capable of inhibiting Axin2 expression and Snail expression, colorectal cancer cells were treated with HCA and BCA, and it was examined whether Axin2 and Snail were expressed in a cell lysate. As HCA and BCA, those separated from cinnamon bark and purified were used (Hwang H et al., J Neuroimmunol 2011, 230, 52-64). As a result, as illustrated in FIGS. 11A and 11B, it was confirmed that HCA and BCA inhibited the expression of Axin2 and Snail at an nM level.
# Snail [2] = assay: Snail expression in cell lysate of colorectal cancer cells treated with HCA and BCA; type: cell-based; details: at an nM level
# From the text: as §1
# [3] = molecular target: T1, recombinant GSK3 beta / Axin peptide interaction (Homo sapiens, UniProt P49841); assay: Competitive inhibition of recombinant GSK3 binding to FITC-conjugated 19-mer Axin peptide (bead fluorescence); details: in proportionate to the concentration of niclosamide added; 2 hours
# T1 construct: made in house; host or cells: Sf9 insect cells (GSK3 beta); peptide chemically synthesized (Peptron)
# From the text: In the previously reported results of analyzing the structure of Axin-GSK3 binding, accumulation of the hydrophobic residues of Axin α-helix into a hydrophobic groove formed by the C-terminal loop of GSK3 is disclosed (Dajani R et al., EMBO J. 22:494-501, 2003), and thus the inventors of the present invention hypothesized that niclosamide would bind to the hydrophobic groove of GSK3 and interfere with the function of Axin. To verify this, in vitro analysis was designed to identify competitive inhibition of recombinant GSK3 binding to 19-mer FITC-conjugated Axin peptides by niclosamide.
# Hig-tagged recombinant GSK3 beta was obtained from sf9 insect cells using a known method (Lee D G, et al. Nat Commun. 5:4423, 2014). The FITC-conjugated 19-mer Axin peptide (Axin1, 383-401, VEPQKFAEELIHRLEAVQR), which is known to bind to GSK3 as an amphipathic α-helix, was chemically synthesized (Peptron). To confirm competitive binding between the synthesized Axin peptide and niclosamide, His-tagged recombinant GSK3 and Ni—Ti beads were treated with niclosamide for 2 hours, and then washed three times with PBS, and quantitative fluorescence measurement was performed using Ni—Ti beads. Fluorescence intensity was represented in proportionate to the fluorescence intensity of a negative control from the 3rd experiment.
# Snail [4] = assay: Western blotting of Snail in oral cancer and oral precancer cell lines; type: cell-based; details: YD-10B, KB and D38 cell lines, 16 hours
# From the text: (§2) The expression of Axin2 and Snail was confirmed in a cell lysate after treating YD-10B (CVCL-8929) and KB (CVC_L 0372), which are oral cancer cell lines, and D38, which is an oral precancer cell line (McGregor F. et al., CANCER RESEARCH 62, 4757-4766, 2002), with various concentrations of niclosamide by using the same method of Example 5.
# (§3) For the YD-10B and KB cell lines, a RPMI1640 medium containing 10% FBS and 1% penicillin/streptomycin was used. For the oral precancer cell line D38, a DMEM: F12 (3:1) medium containing 10% FBS and 1% penicillin/streptomycin was used. The respective cells were treated with niclosamide at the indicated concentration for 16 hours and the expression of Axin2 and Snail was analyzed through western blotting.
# [5] = tested on: oral precancer cell line D38; assay: Cell growth by counting cells in real time, D38; type: cell-based; details: as the concentration of niclosamide was increased
# Experimental: (§4) The oral cancer cell lines YD-10B and KB and the oral precancer cell line D38 were treated with various concentrations of niclosamide, and cell growth was measured by counting cells in real time.
# Axin2 [6] = assay: Axin2 expression in colorectal cancer cell lines treated with niclosamide; type: cell-based; details: HCT116, SW480, SW620 and DLD-1 cells; niclosamide at an nM level
# [7] = tested on: oral precancer cell line D38; assay: Migration assay (crystal violet), D38; type: cell-based; details: niclosamide-concentration-dependent
# Experimental: (§5) Cell migration is regulated by Axin2 and Snail. In the present example, the YD-10B cell line, the KB cell line, and the oral precancer cell line D38 were treated with niclosamide, a migration assay was performed thereon, and then the cells were stained with crystal violet and cell migration values were measured.
# Snail [8] = assay: Snail expression in colorectal cancer cell lines treated with niclosamide; type: cell-based; details: HCT116, SW480, SW620 and DLD-1 cells; niclosamide at an nM level
# [9] = tested on: oral cancer cell line YD-10B; assay: Cell growth by counting cells in real time, YD-10B; type: cell-based; details: as the concentration of niclosamide was increased
# Experimental: as §4
# [10] = tested on: oral precancer cell line D38; assay: 3D culture model on collagen sheet, D38; type: cell-based; details: 0.125 μM niclosamide
# Experimental: To confirm the niclosamide treatment effect in a 3D culture model, the results of treatment with 0.125 μM niclosamide when the oral precancer cell line D38 was cultured on a collagen sheet are illustrated in FIG. 17, in part A thereof.
# [11] = tested on: oral cancer cell line YD10B; assay: Soft agar colony formation assay, YD10B; type: cell-based; details: 3 weeks, according to niclosamide treatment concentration
# Experimental: (§6) The oral precancer cell line D38 and the oral cancer cell line YD10B were cultured on soft agar plates containing various concentrations of niclosamide. The corresponding concentration of niclosamide was administered while the respective cells were cultured on the soft agar plates for 3 weeks.
# oral cancer cells YD10B [12] = assay: YD10B oral cancer cell transplant in immunodeficient mice; type: in vivo; details: 200 mg/kg (mpk), orally, daily; Balb/c athymic nude mice with YD10B cells
# From the text: To confirm the effect of niclosamide on the inhibition of oral cancer in an animal model, oral cancer cells YD10B (3×10^6 cells) were transplanted to immunodeficient mice (Balb/c, athymic nude mice, NaraBiotech), the mice were divided into two groups, and then niclosamide was orally administered to the two groups daily.
# recombinant GSK3β = recombinant GSK3β (Homo sapiens, UniProt P49841); assay: Surface plasma resonance (SPR) analysis on immobilized recombinant GSK3β; type: binding
# Experimental: Surface plasma resonance (SPR) analysis was performed to confirm whether niclosamide directly binds to GSK3. SPR was conducted using the ProteOn™ XPR36 Protein Interaction Array system (Bio-Rad Laboratories, Inc., CA, USA), and purified recombinant GSK3β, was immobilized to a ProteOn GLH sensor chip. Niclosamide or 19-mer wild type Axin peptide or mutant peptide (VEPQKAAEEAIHRAEAVQR, mutation underlined) were diluted by phosphate-buffered saline+Tween 20+1% DMSO at different concentrations and then flowed over the chip at a rate of 100 μl/min. The results thereof were analyzed by ProteOn Manager Software 2.0 using the standard Langmuir models for fitting kinetic data. The rate of complex formation was represented by the association constant (ka, in the unit of M-1s-1), and the rate of complex decay was represented by the dissociation constant (kd, in the unit of s-1), as given by Equation 1 below.
# A high-affinity interaction is represented by a low dissociation constant, and rapid recognition and binding with interactants (rapid “on rate,” or high ka) and the stability of complex formation (slow “off rate,” or low kd) are as shown in the following equation: KD=kd/ka.
# Axin2 [13] = assay: Western blotting of Axin2 in oral cancer and oral precancer cell lines; type: cell-based; details: YD-10B, KB and D38 cell lines, 16 hours
# From the text: as §2, §3
# oral cancer cell line KB = assay: Cell growth by counting cells in real time, KB; type: cell-based; details: as the concentration of niclosamide was increased
# Experimental: as §4
# KB cell line = assay: Migration assay (crystal violet), KB; type: cell-based; details: niclosamide-concentration-dependent
# Experimental: as §5
# oral cancer cells YD10B [14] = assay: 3D culture model, YD10B; type: cell-based; details: YD10B three-dimensionally cultured, 0.125 μM niclosamide
# [15] = tested on: oral precancer cell line D38; assay: Soft agar colony formation assay, D38; type: cell-based; details: 3 weeks, according to niclosamide treatment concentration
# Experimental: as §6
# [16] = tested on: oral precancer cell line D38; assay: Trypan exclusion assay for apoptosis; type: cell-based; details: D38, 72 hours, concentration-dependent
# Experimental: The oral precancer cell line D38 was treated with various concentrations of niclosamide for 72 hours and apoptosis was confirmed through a trypan exclusion assay.
# Axin-GSK3 complex = molecular target: T2, Axin-GSK3 complex (Homo sapiens, UniProt P49841); assay: Immunoprecipitation of His-tagged Axin2 from MCF-7 cell lysate, immunoblot for GSK3; type: binding; details: MCF-7 cells with His-tagged Axin2, Triton X-100 lysate, Ni-Ti beads
# T2 construct: expressed in transfected cells; host or cells: MCF-7 (Axin2 transfected, doxycycline-induced; GSK3 endogenous)
# Experimental: To confirm whether niclosamide is capable of inhibiting Axin-GSK3 interaction, cell lysates with full-length Axin2 were examined to perform immunoprecipitation experiments in the presence or absence of niclosamide.
# An immunoprecipitation assay was performed as follows (Yook J I, et al. Nat Cell Biol. 8:1398-1406, 2006).
# A doxycycline-induced His-tagged Axin2 expression vector was transfected into MCF-7 cells (ATCC, American Type Culture collection) and cultured, and a Triton X-100 lysate of whole cells was treated with Ni—Ti beads (Invitrogen) and niclosamide at each concentration to allow a reaction to occur therebetween. Proteins recovered in the beads were subjected to SDS-PAGE, followed by immunoblot analysis for GSK3, and a 1/20 volume of a control was added thereto.
# YD-10B cell line = assay: Migration assay (crystal violet), YD-10B; type: cell-based; details: niclosamide-concentration-dependent
# Experimental: as §5
# Sequence of recombinant GSK3β (P49841 whole entry): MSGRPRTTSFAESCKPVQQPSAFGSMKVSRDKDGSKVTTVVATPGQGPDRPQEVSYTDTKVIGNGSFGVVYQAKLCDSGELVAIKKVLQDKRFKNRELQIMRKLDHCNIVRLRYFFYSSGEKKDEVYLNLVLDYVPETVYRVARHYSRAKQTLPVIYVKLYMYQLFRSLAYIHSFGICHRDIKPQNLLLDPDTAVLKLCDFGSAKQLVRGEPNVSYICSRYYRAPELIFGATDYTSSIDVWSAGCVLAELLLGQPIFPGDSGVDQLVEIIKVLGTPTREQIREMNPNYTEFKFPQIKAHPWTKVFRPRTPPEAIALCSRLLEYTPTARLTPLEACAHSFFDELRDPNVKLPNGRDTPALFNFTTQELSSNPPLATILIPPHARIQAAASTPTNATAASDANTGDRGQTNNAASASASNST
# T2 sequence (P49841 whole entry, one chain of several): as the sequence (P49841 whole entry) above
# T1 sequence (P49841 whole entry): as above
molecule,measurement,setting,value
"O=CC=Cc1ccccc1OC(=O)c1ccccc1 [BCA, 2′-benzoyloxycinnamaldehyde]",expression of Axin2,Axin2 [1],inhibited
same,expression of Snail,Snail [2],inhibited
"O=CC=Cc1ccccc1O [HCA, 2′-Hydroxycinnamaldehyde]",expression of Axin2,Axin2 [1],inhibited
same,expression of Snail,Snail [2],inhibited
O=C(Nc1ccc([N+](=O)[O-])cc1Cl)c1cc(Cl)ccc1O [niclosamide],interaction between the recombinant GSK3 and the synthesized Axin peptide,[3],inhibited
same,expression of Snail,Snail [4],inhibited
same,cell growth,[5],inhibited
same,Axin2 expression,Axin2 [6],decreased
same,cell migration,[7],inhibited
same,Snail expression,Snail [8],decreased
same,cell growth,[9],inhibited
same,cell density,[10],reduced
same,keratinocytic differentiation,[10],induced
same,basal membrane,[10]; destroyed in control,smooth basal membrane was observed
same,colony formation,[11],inhibited
same,volume of tumors,oral cancer cells YD10B [12],reduced
same,direct binding to GSK3,recombinant GSK3β,directly bound
same,Kd,"recombinant GSK3β; GSK3β immobilized on sensor chip, read-out: equilibrium dissociation constant KD",34 µM
same,expression of Axin2,Axin2 [13],inhibited
same,cell growth,oral cancer cell line KB,inhibited
same,cell migration,KB cell line,inhibited
same,invasiveness of cancer cells,oral cancer cells YD10B [14],rapidly reduced
same,colony formation,[15],inhibited
same,apoptosis,[16],occurred
same,GSK3 that binds to Axin2 in a total cell lysate,Axin-GSK3 complex,reduced
same,cell migration,YD-10B cell line,inhibited
CC[C@H](C)[C@H](NC(=O)[C@H](CC(C)C)NC(=O)[C@H](CCC(=O)O)NC(=O)[C@H](CCC(=O)O)NC(=O)[C@H](C)NC(=O)[C@H](Cc1ccccc1)NC(=O)[C@H](CCCCN)NC(=O)[C@H](CCC(N)=O)NC(=O)[C@@H]1CCCN1C(=O)[C@H](CCC(=O)O)NC(=O)[C@@H](N)C(C)C)C(=O)N[C@@H](Cc1c[nH]cn1)C(=O)N[C@@H](CCCNC(=N)N)C(=O)N[C@@H](CC(C)C)C(=O)N[C@@H](CCC(=O)O)C(=O)N[C@@H](C)C(=O)N[C@H](C(=O)N[C@@H](CCC(N)=O)C(=O)N[C@@H](CCCNC(=N)N)C(=O)O)C(C)C [wild type Axin peptide],direct binding to GSK3,recombinant GSK3β,directly bound
"Mutant Axin peptide: mutant 19-mer Axin peptide VEPQKAAEEAIHRAEAVQR, mutations on hydrophobic residues",binding to GSK3 protein immobilized on a sensor surface,recombinant GSK3β; up to 100 μM,unable to bind

# Source: patent publication US20190388362A1, “PHARMACEUTICAL COMPOSITION FOR TREATING ORAL PRECANCER AND METHOD FOR PREDICTING OR DIAGNOSING ORAL PRECANCER OR ORAL CANCER” (MET Life Sciences Co., Ltd., priority 2017, published 2019)
